≈ marks a conversion by molar mass, not a printed value. Where two headings read alike, the source gives them in different places. Each block holds one compound with its values, some of them ahead of it.
Key:
[1] = tested on: human umbilical vein endothelial cells; experiment: inhibition of human umbilical vein endothelial cell growth (MTT); format: cell-based; settings: 120 h, rFGF 2 ng/ml, 5-day culture, MTT OD590, read-out: IC50, inhibiting endothelial cell growth
Experimental: Evaluation of inhibition of human umbilical vein endothelial cell growth
Human umbilical vein endothelial cells were isolated by perfusion of an umbilical vein with a trypsin-containing medium. The cells were cultured in sequence in GIT medium (Daigo Eiyo Kagaku) supplemented with 2.5% fetal bovine serum and 2.0 ng/ml or recombinant human fibroblast growth factor (hereinafter simply referred to rFGF, prepared at Biotechnology Research Laboratories, Takeda Chemical Industries, Ltd.).
A suspension of human vein endothelial cells at the cell density of 2×10^3 (100 μl) was seeded on 96-well incubation plate (Nunc, 1-67008), and incubation was conducted in a gas-controlled thermostat vessel. The following day, 100 μl of medium containing rFGF (2 ng/ml at the final concentration) and samples of various concentrations were added. […] After 5-day culture, the culture solution containing samples was removed by suction, 100 μl of 1 mg/ml of MTT solution [3-(4,5-dimethyl-2-thiazolyl)-2,5-diphenyl-2H-tetrazolium bromide was dissolved in the culture solution] was added and kept warm it about 40° C. for 4 hours. Then, 100 μl of a 10% SDS solution (aqueous solution of sodium dodecyl sulfate) was added, and the mixture was kept warming for 5-6 hours. The cells and MTT pigment were solubilized, and the OD590 value was measured using a spectrophotometer.

[2] = tested on: bFGF-induced angiogenesis; experiment: rat cornea micropocket method, angiogenesis inhibitory activity; format: in vivo, rat (Sprague-Dawley); settings: number of rats with angiogenesis inhibitory activity relative to number tested; sample 20 ug pellet, bFGF 250 ng, 10 days
Experimental: The object compounds (I) obtained in the Examples given below were evaluated for angiogenesis inhibitory activity by the rat cornea micropocket method. Method of Evaluation:
Essentially the same method of Gimbrone et al. [J. National Cancer Institute, 52, 413-419 (1974)] was followed. Thus, adult male Sprague-Dawley rats (11 to 16 week old) were anesthetized with nembutal and locally anesthetized by instillation of xylocaine eyedrops onto the eyeball. The cornea was incised to a length of about 2 mm at about 2 mm inside from the corneal circumference by means of an injection needle, and a basic fibroblast growth factor (bFGF; bovine brain-derived, purified product; R & D Inc.) and a sustained release pellet containing the test sample were inserted side by side into the incision so that the bFGF pellet was located on the central side in the cornea. In the control group, the bFGF pellet and a sample-free pellet were inserted into the cornea. After 10 days, the cornea was observed under a stereoscopic microscope.
The sustained release pellets were prepared in the following manner. An ethylene-vinyl acetate copolymer (Takeda Chemical Industries, Ltd.) was dissolved in dichloromethane to a concentration of 8%. A 3 μl portion of the solution was air-dried on a glass dish, an aqueous solution of bFGF (250 ng) was then placed thereon and air-dried and, finally 3 μl of the above ethylene-vinyl acetate copolymer solution was placed further thereon and air-dried to give a sandwich sheet. This sandwich sheet was made round into a bFGF pellet. The test sample pellets were prepared by dissolving each sample in ethanol in a concentration of 20 ug/2 μl, mixing the solution with 6 μl of an ethylene-vinyl acetate copolymer solution, air-drying the mixed solution in a glass dish and making the thus-obtainedsheet round.
In the Table 1 above, the inhibitory rate means the number of rats on which angiogenesis inhibitory activity was observed relative to the number of rats tested.

[3] = tested on: germinal center formation and plasma cell induction in the spleen; experiment: histological study in the spleen of mice immunized with sheep red blood cells; format: in vivo, mouse (BALB/c); settings: compounds 5 and 8: 100 mg/kg i.p. once a day for 4 days; day 6 after immunization; words
[4] = tested on: anti-bovine gamma globulin antibody titer; experiment: anti-bovine gamma globulin antibody titer in immunized mice; format: in vivo, mouse (BALB/c); settings: for Anti-bovine gamma globulin antibody titer, suppression: 20 mg/kg i.p. every 2 days, sera 3 weeks after immunization, words; for Anti-bovine gamma globulin Ab titer: percentage against reference group injected with saline, compounds 5 and 8: 20 mg/kg i.p. every 2 days, 3 weeks
Experimental: Anti-bovine gamma globulin antibody titer was assayed in sera obtained 3 weeks after the immunization.

[5] = tested on: T cell independent antibody production; experiment: antibody production induced by Epstein Barr virus (T cell independent B cell mitogen); format: cell-based; settings: in vitro
Description: (§1) The effects of compounds 5 and 8 on the antibody production induced by pokeweed mitogen, a T cell dependent B cell mitogen, and Epstein Barr virus, a T cell independent B cell mitogen, were examined.

[6] = tested on: spleen cells from BALB/c and C57BL/6 mice; experiment: 3H-thymidine uptake induced by the mixed lymphocyte reaction of spleen cells; format: cell-based, mouse (BALB/c and C57BL/6); settings: Mus musculus, in vitro
[7] = thymus and spleen weight; format: in vivo, mouse (BALB/c); settings: for Spleen weight / Thymus weight: percentage against reference group injected with saline; for reduction of spleen weight: words
Experimental: and spleen were represented as percentages against those of a reference
group which were injected with saline.

[8] = tested on: T cell dependent immunoglobulin production; experiment: antibody production induced by pokeweed mitogen (T cell dependent B cell mitogen); format: cell-based; settings: in vitro
Description: as §1

[9] = Epstein Barr virus, read-out: 50% suppression of T cell independent antibody production, concentration
[10] = Table 3, read-out: T independent Ab production, concentration which showed 50% inhibition
[11] = Lymphocyte, Table 3, read-out: Mixed lymphocyte reaction, concentration which showed 50% inhibition
[12] = mixed lymphocyte reaction, read-out: 50% inhibition of 3H-thymidine uptake, concentration
[13] = Table 3, read-out: T dependent Ab production, concentration which showed 50% inhibition
[14] = pokeweed mitogen, read-out: 50% suppression of T cell dependent immunoglobulin production, concentration

SMILES: CO[C@@H]1[C@@H](OC=O)CC[C@]2(CO2)[C@H]1[C@@]1(C)O[C@@H]1CC=C(C)C [Example 1, 6-O-formyl-6-epifumagillol]
- IC50 [1]: < 0.08 ng/mL
- Inhibitory Rate [2]: 3/7

SMILES: CO[C@@H]1[C@@H](O)CC[C@]2(CO2)[C@H]1[C@@]1(C)O[C@@H]1CC=C(C)C [Example 2, 6-epifumagillol]
- IC50 [1]: < 0.08 ng/mL
- Inhibitory Rate [2]: 3/7

SMILES: CO[C@@H]1[C@@H](OC)CC[C@]2(CO2)[C@H]1[C@@]1(C)O[C@@H]1CC=C(C)C [Example 3, 6-O-methyl-6-epifumagillol]
- IC50 [1]: 9.82 ng/mL (≈ 33.1 nM)

- IC50 [5, 9]: 30 nM
- IC50 [5, 10]: 30 nM
- IC50 [6, 11]: 300 nM
- IC50 [6, 12]: 300 nM
SMILES: CO[C@@H]1[C@@H](OC(C)=O)CC[C@]2(CO2)[C@H]1[C@@]1(C)O[C@@H]1CC=C(C)C [Example 5, 6-O-acetyl-6-epifumagillol]
- formation of germinal center in the spleen [3]: suppressed the formation of germinal center
- induction of plasma cells in the spleen [3]: suppressed
- IC50 [1]: 1.91 ng/mL (≈ 5.89 nM)
- Anti-bovine gamma globulin antibody titer, suppression [4]: significant suppression
- Anti-bovine gamma globulin Ab titer [4]: 13%
- Inhibitory Rate [2]: 4/8
- Spleen weight [7]: 57%
- Thymus weight [7]: 105%
- reduction of spleen weight [7]: reduction of spleen weight was observed
- IC50 [8, 13]: 7 µM
- IC50 [8, 14]: 7 µM

SMILES: CO[C@@H]1[C@@H](OC(=O)c2ccccc2)CC[C@]2(CO2)[C@H]1[C@@]1(C)O[C@@H]1CC=C(C)C [Example 6, 6-O-benzoyl-6-epifumagillol]
- IC50 [1]: 2.05 ng/mL (≈ 5.3 nM)
- Inhibitory Rate [2]: 6/6

SMILES: CO[C@@H]1[C@@H](OC(=O)CCC(=O)O)CC[C@]2(CO2)[C@H]1[C@@]1(C)O[C@@H]1CC=C(C)C [Example 7, 6-O-(3-carboxypropionyl)-6-epifumagillol]
- IC50 [1]: 8.71 ng/mL (≈ 22.8 nM)
- Inhibitory Rate [2]: 5/6

- IC50 [5, 9]: 1 nM
- IC50 [5, 10]: 1 nM
- IC50 [6, 11]: 400 nM
- IC50 [6, 12]: 10 nM
SMILES: CO[C@@H]1[C@@H](OC(=O)Oc2ccccc2)CC[C@]2(CO2)[C@H]1[C@@]1(C)O[C@@H]1CC=C(C)C [Example 8, 6-O-phenoxycarbonyl-6-epifumagillol]
- formation of germinal center in the spleen [3]: suppressed the formation of germinal center
- induction of plasma cells in the spleen [3]: suppressed
- IC50 [1]: 0.166 ng/mL (≈ 0.412 nM)
- Anti-bovine gamma globulin antibody titer, suppression [4]: significant suppression
- Anti-bovine gamma globulin Ab titer [4]: 9%
- Inhibitory Rate [2]: 5/7
- Spleen weight [7]: 60%
- Thymus weight [7]: 116%
- reduction of spleen weight [7]: reduction of spleen weight was observed
- IC50 [8, 13]: 4 µM
- IC50 [8, 14]: 4 µM

SMILES: CO[C@@H]1[C@@H](OC(N)=O)CC[C@]2(CO2)[C@H]1[C@@]1(C)O[C@@H]1CC=C(C)C [Example 9, 6-O-carbamoyl-6-epifumagillol]
- IC50 [1]: 0.1 ng/mL (≈ 0.307 nM)

SMILES: CO[C@@H]1[C@@H](OC(=O)N2CCOCC2)CC[C@]2(CO2)[C@H]1[C@@]1(C)O[C@@H]1CC=C(C)C [Example 11, 6-O-morpholinocarbonyl-6-epifumagillol]
- IC50 [1]: 4.68 ng/mL (≈ 11.8 nM)

SMILES: CO[C@@H]1[C@@H](OS(C)(=O)=O)CC[C@]2(CO2)[C@H]1[C@@]1(C)O[C@@H]1CC=C(C)C [Example 12, 6-O-methanesulfonyl-6-epifumagillol]
- IC50 [1]: 6.5 ng/mL (≈ 18 nM)
- Inhibitory Rate [2]: 3/4

From US5204345A, “6-epifumagillols and the pharmaceutical use thereof” (Takeda Chemical Industries, Ltd., priority 1989, dated 1993)
